In ChEMBL document CHEMBL4270599, “Synthesis of a 3'-C-ethynyl-β-d-ribofuranose purine nucleoside library: Discovery of C7-deazapurine analogs as potent antiproliferative nucleosides” (Eur J Med Chem, 2018):

Legend:
Type in all cases: functional
NCI-H460 = assay: Growth inhibition of human NCI-H460 cells assessed as cell growth at 10^-7 M incubated for 48 hrs by sulforhodamine B assay relative to control; conditions: NCI-H460, 48 h, read-out: Activity
SNB-75 [1] = assay: Growth inhibition of human SNB75 cells assessed as cell growth at 10^-8 M incubated for 48 hrs by sulforhodamine B assay relative to control; conditions: SNB-75, 48 h, read-out: Activity
SF-295 = assay: Growth inhibition of human SF295 cells assessed as cell growth at 10^-6 M incubated for 48 hrs by sulforhodamine B assay relative to control; conditions: SF-295, 48 h, read-out: Activity
ACHN [2] = assay: Growth inhibition of human ACHN cells assessed as cell growth at 10^-8 M incubated for 48 hrs by sulforhodamine B assay relative to control; conditions: read-out: Activity
CCRF-CEM = assay: Growth inhibition of human CCRF-CEM cells assessed as cell growth at 10^-7 M incubated for 48 hrs by sulforhodamine B assay relative to control; conditions: read-out: Activity
UACC-257 = assay: Cytotoxicity against human UACC257 cells after 48 hrs by SRB assay; conditions: UACC-257, 48 h
SF-268 = assay: Cytotoxicity against human SF268 cells after 48 hrs by SRB assay; conditions: SF-268, 48 h
DU-145 [3] = assay: Growth inhibition of human DU145 cells assessed as cell growth at 10^-8 M incubated for 48 hrs by sulforhodamine B assay relative to control; conditions: DU-145, 48 h, read-out: Activity
ACHN [4] = assay: Growth inhibition of human ACHN cells assessed as cell growth at 10^-4 M incubated for 48 hrs by sulforhodamine B assay relative to control; conditions: read-out: Activity
SNB-75 [5] = assay: Growth inhibition of human SNB75 cells assessed as cell growth at 10^-6 M incubated for 48 hrs by sulforhodamine B assay relative to control; conditions: SNB-75, 48 h, read-out: Activity
NCI-H23 = assay: Growth inhibition of human NCI-H23 cells assessed as cell growth at 10^-8 M incubated for 48 hrs by sulforhodamine B assay relative to control; conditions: NCI-H23, 48 h, read-out: Activity
OVCAR-3 = assay: Growth inhibition of human OVCAR3 cells assessed as cell growth at 10^-4 M incubated for 48 hrs by sulforhodamine B assay relative to control; conditions: OVCAR-3, 48 h, read-out: Activity
SK-MEL-2 = assay: Growth inhibition of human SK-MEL-2 cells assessed as cell growth at 10^-8 M incubated for 48 hrs by sulforhodamine B assay relative to control; conditions: SK-MEL-2, 48 h, read-out: Activity
NCI/ADR-RES = assay: Growth inhibition of human NCI/ADR-RES cells assessed as cell growth at 10^-4 M incubated for 48 hrs by sulforhodamine B assay relative to control; conditions: read-out: Activity
PC-3 = assay: Growth inhibition of human PC3 cells assessed as cell growth at 10^-8 M incubated for 48 hrs by sulforhodamine B assay relative to control; conditions: PC-3, 48 h, read-out: Activity
786-0 = assay: Cytotoxicity against human 786-0 cells after 48 hrs by SRB assay; conditions: 786-0, 48 h
LOX IMVI = assay: Growth inhibition of human LOXIMVI cells assessed as cell growth at 10^-8 M incubated for 48 hrs by sulforhodamine B assay relative to control; conditions: read-out: Activity
A498 = assay: Cytotoxicity against human A498 cells after 48 hrs by SRB assay; conditions: A498, 48 h
DU-145 [6] = assay: Growth inhibition of human DU145 cells assessed as cell growth at 10^-7 M incubated for 48 hrs by sulforhodamine B assay relative to control; conditions: DU-145, 48 h, read-out: Activity
SK-MEL-28 = assay: Growth inhibition of human SK-MEL-28 cells assessed as cell growth at 10^-8 M incubated for 48 hrs by sulforhodamine B assay relative to control; conditions: SK-MEL-28, 48 h, read-out: Activity
MOLT-4 = assay: Cytotoxicity against human MOLT4 cells after 48 hrs by SRB assay; conditions: MOLT-4, 48 h
M14 = assay: Growth inhibition of human M14 cells assessed as cell growth at 10^-6 M incubated for 48 hrs by sulforhodamine B assay relative to control; conditions: M14, 48 h, read-out: Activity
EKVX = assay: Growth inhibition of human EKVX cells assessed as cell growth at 10^-7 M incubated for 48 hrs by sulforhodamine B assay relative to control; conditions: read-out: Activity
HL-60(TB) = assay: Growth inhibition of human HL-60(TB) cells assessed as cell growth at 10^-7 M incubated for 48 hrs by sulforhodamine B assay relative to control; conditions: HL-60, 48 h, read-out: Activity
MDA-MB-231 = assay: Growth inhibition of human MDA-MB-231 cells assessed as cell growth at 10^-7 M incubated for 48 hrs by sulforhodamine B assay relative to control; conditions: MDA-MB-231, 48 h, read-out: Activity
SW-620 = assay: Growth inhibition of human SW620 cells assessed as cell growth at 10^-8 M incubated for 48 hrs by sulforhodamine B assay relative to control; conditions: SW-620, 48 h, read-out: Activity
K562 = assay: Growth inhibition of human K562 cells assessed as cell growth at 10^-6 M incubated for 48 hrs by sulforhodamine B assay relative to control; conditions: K562, 48 h, read-out: Activity
HCT-15 [7] = assay: Growth inhibition of human HCT15 cells assessed as cell growth at 10^-5 M incubated for 48 hrs by sulforhodamine B assay relative to control; conditions: HCT-15, 48 h, read-out: Activity
COLO 205 = assay: Growth inhibition of human COLO205 cells assessed as cell growth at 10^-7 M incubated for 48 hrs by sulforhodamine B assay relative to control; conditions: COLO 205, 48 h, read-out: Activity
TK-10 = assay: Cytotoxicity against human TK10 cells after 48 hrs by SRB assay; conditions: TK-10, 48 h
UACC-62 = assay: Growth inhibition of human UACC62 cells assessed as cell growth at 10^-6 M incubated for 48 hrs by sulforhodamine B assay relative to control; conditions: UACC-62, 48 h, read-out: Activity
HCT-15 [8] = assay: Growth inhibition of human HCT15 cells assessed as cell growth at 10^-6 M incubated for 48 hrs by sulforhodamine B assay relative to control; conditions: HCT-15, 48 h, read-out: Activity
Hs-578T = assay: Growth inhibition of human Hs 578T cells assessed as cell growth at 10^-6 M incubated for 48 hrs by sulforhodamine B assay relative to control; conditions: read-out: Activity
[9] = read-out: pLC50 (the source's name) (converted)
[10] = read-out: LC50 (the source's name)

Q: Which growth at 0.1 µM (NCI-H460) does the source give for `C#C[C@@]1(O)[C@@H](CO)O[C@@H](n2ccc3c(N)ncnc32)[C@@H]1O` here?
A: 91%

Q: What about the growth at 0.01 µM (SNB-75 [1]) of the same compound?
A: 86%

Q: What about the growth at 1 µM (SF-295) of the same compound?
A: 74%

Q: What about the growth at 0.01 µM (ACHN [2]) of the same compound?
A: 97%

Q: What about the growth at 0.1 µM (CCRF-CEM) of the same compound?
A: 101%

Q: And the TGI (UACC-257; read-out: TGI)?
A: 7.05 µM

Q: What about the GI50 (UACC-257; read-out: pGI50 (converted)) of the same compound?
A: 2.29 µM

Q: And the CC50 (UACC-257; [9])?
A: 55 µM

Q: And the TGI (UACC-257; read-out: pTGI (converted))?
A: 7.08 µM

Q: What about the TGI (SF-268; read-out: TGI) of the same compound?
A: 26.1 µM

Q: And the GI50 (SF-268; read-out: pGI50 (converted))?
A: 2.34 µM

Q: What about the CC50 (SF-268; [9]) of the same compound?
A: > 100 µM

Q: What about the TGI (SF-268; read-out: pTGI (converted)) of the same compound?
A: 26.3 µM

Q: And the growth at 0.01 µM (DU-145 [3])?
A: 103%

Q: What about the growth at 100 µM (ACHN [4]) of the same compound?
A: -24%

Q: What about the growth at 1 µM (SNB-75 [5]) of the same compound?
A: 90%

Q: And the growth at 0.01 µM (NCI-H23)?
A: 95%

Q: What about the growth at 100 µM (OVCAR-3) of the same compound?
A: -36%

Q: And the growth at 0.01 µM (SK-MEL-2)?
A: 88%

Q: What about the growth at 100 µM (NCI/ADR-RES) of the same compound?
A: -9%

Q: What about the growth at 0.01 µM (PC-3) of the same compound?
A: 97%

Q: What about the TGI (786-0; read-out: TGI) of the same compound?
A: 6.15 µM

Q: And the GI50 (786-0; read-out: pGI50 (converted))?
A: 1.62 µM

Q: And the LC50 (lethal concentration, 50% cell kill) (786-0; read-out: pLC50 (converted))?
A: 25.7 µM

Q: What about the TGI (786-0; read-out: pTGI (converted)) of the same compound?
A: 6.17 µM

Q: And the growth at 0.01 µM (LOX IMVI)?
A: 98%

Q: What about the TGI (A498; read-out: TGI) of the same compound?
A: 3.74 µM

Q: And the GI50 (A498; read-out: pGI50 (converted))?
A: 1.66 µM

Q: What about the TGI (A498; read-out: pTGI (converted)) of the same compound?
A: 3.72 µM

Q: What about the growth at 0.1 µM (DU-145 [6]) of the same compound?
A: 98%

Q: What about the growth at 0.01 µM (SK-MEL-28) of the same compound?
A: 93%

Q: What about the CC50 (MOLT-4; [10]) of the same compound?
A: > 100 µM

Q: What about the TGI (MOLT-4; read-out: TGI) of the same compound?
A: > 100 µM

Q: And the GI50 (MOLT-4; read-out: pGI50 (converted))?
A: 0.617 µM

Q: And the TGI (MOLT-4; read-out: pTGI (converted))?
A: > 100 µM

Q: And the growth at 1 µM (M14)?
A: 73%

Q: What about the growth at 0.1 µM (EKVX) of the same compound?
A: 92%

Q: What about the growth at 0.1 µM (HL-60(TB)) of the same compound?
A: 105%

Q: And the growth at 0.1 µM (MDA-MB-231)?
A: 106%

Q: What about the growth at 0.01 µM (SW-620) of the same compound?
A: 72%

Q: What about the growth at 1 µM (K562) of the same compound?
A: 46%

Q: And the growth at 10 µM (HCT-15 [7])?
A: -24%

Q: And the growth at 0.1 µM (COLO 205)?
A: 97%

Q: And the CC50 (TK-10; [10])?
A: > 100 µM

Q: And the TGI (TK-10; read-out: TGI)?
A: 9.48 µM

Q: And the GI50 (TK-10; read-out: pGI50 (converted))?
A: 2.63 µM

Q: And the TGI (TK-10; read-out: pTGI (converted))?
A: 9.55 µM

Q: And the growth at 1 µM (UACC-62)?
A: 82%

Q: What about the growth at 1 µM (HCT-15 [8]) of the same compound?
A: 48%

Q: What about the growth at 1 µM (Hs-578T) of the same compound?
A: 114%
